The NIST ThermoML archive (doi:10.1016/j.jct.2016.07.029)

Test: excess molar enthalpy (molar enthalpy of mixing); xn = mol fraction of the nth substance listed
Conditions: 100 kPa, Liquid, Calvet calorimetry

[Zn] [zinc] + [Ga]
Conditions	excess molar enthalpy [kcal/mol]
722 K, x1 = 0.0966	0.125
722 K, x1 = 0.132	0.161
722 K, x1 = 0.1679	0.205
722 K, x1 = 0.237	0.272
722 K, x1 = 0.2478	0.255
722 K, x1 = 0.2796	0.304
722 K, x1 = 0.3239	0.337
722 K, x1 = 0.3424	0.323
722 K, x1 = 0.3664	0.357
722 K, x1 = 0.4104	0.377
722 K, x1 = 0.4155	0.361
722 K, x1 = 0.4432	0.385
722 K, x1 = 0.4746	0.378
722 K, x1 = 0.4747	0.393
722 K, x1 = 0.5057	0.402
722 K, x1 = 0.5202	0.377
722 K, x1 = 0.5368	0.404
722 K, x1 = 0.5565	0.378
722 K, x1 = 0.562	0.406
722 K, x1 = 0.5901	0.379
722 K, x1 = 0.6188	0.375
722 K, x1 = 0.6444	0.37
722 K, x1 = 0.6659	0.363
722 K, x1 = 0.6846	0.357
722 K, x1 = 0.761	0.326
722 K, x1 = 0.8068	0.305
722 K, x1 = 0.8495	0.256
722 K, x1 = 0.9004	0.182
722 K, x1 = 0.948	0.102
923 K, x1 = 0.07739	0.092
923 K, x1 = 0.1307	0.149
923 K, x1 = 0.1593	0.182
923 K, x1 = 0.2353	0.252
923 K, x1 = 0.2736	0.284
923 K, x1 = 0.3154	0.313
923 K, x1 = 0.3262	0.315
923 K, x1 = 0.3711	0.346
923 K, x1 = 0.3774	0.352
923 K, x1 = 0.4101	0.361
923 K, x1 = 0.4408	0.38
923 K, x1 = 0.4434	0.384
923 K, x1 = 0.4743	0.395
923 K, x1 = 0.4896	0.398
923 K, x1 = 0.4981	0.403
